The results in this text go back to patent publication US9315517B2, “Imidazol-piperidinyl derivatives as modulators of kinase activity” (Merck Patent GmbH, priority 2012, dated 2016).

pIC50: −log10 of the molar value.

Assay [1] concerns the target T1, P70S6K (T412E mutant, Millipore) (Homo sapiens, UniProt P23443, T412E).
T1 construct: purchased Millipore
Kind of assay: P70S6K enzyme assay. The class given is biochemical. Particulars: enzyme inhibition; 24 μM ATP, 90 min at 25° C., Caliper mobility shift. As to the method: (§1) The IC50 values reported for the compounds in the Experimental section were derived from the following protocol for the p70S6K and AKT enzyme assays.
P70S6K inhibitor compounds were diluted and plated in 96 well plates. A reaction mixture including the following components was then added to the compound plate to initiate the enzyme reaction; P70S6K (3 nM, T412E mutant, Millipore) was mixed with 24 μM ATP in an assay buffer containing 100 mM Hepes (pH 7.5), 5 mM MgCl2, 1 mM DTT, 0.015% Brij and 1 μM of the substrate peptide FITC-AHA-AKRRRLSSLRA-OH (derived from the S6 ribosomal protein sequence, FITC=fluorescein isothiocyanate, AHA=6-aminohexanoic acid). The reaction was incubated for 90 min at 25° C., before the addition of 10 mM EDTA to stop the reaction. The proportion of substrate and product (phosphorylated) peptide was analysed on a Caliper Life Sciences Lab Chip 3000, using a pressure of −1.4 psi, and upstream and downstream voltages of −3000 and −700 respectively. Product peaks were resolved before substrate peaks on the resulting chromatograms.

The next assay addresses T2, His-AKT (Full Length) (Homo sapiens, UniProt P31749).
T2 construct: 0.1 ng/μl His-AKT (Full Length); His; purchased Invitrogen P2999
Kind of assay: AKT enzyme assay. The note with it: enzyme inhibition; 160 uM ATP, 90 min at 25° C., Caliper mobility shift. The class given is biochemical. As to the method:
as §1
A TTP Mosquito liquid handling instrument was used to place 125 nl of the appropriate concentration of inhibitor in 100% DMSO (for a dose response curve calculation) into each well of a 384-well plate. To this reaction components were added to a final volume of 12.5 μl: • 0.1 ng/μl His-AKT (Full Length), (Invitrogen, Part # P2999, Lot # 641228C). • 160 uM ATP (Fluke, 02055) • 1 mM DTT (Sigma, D0632) • 1 mM MgCl2 (Sigma, M1028) • 1 μM substrate peptide (sequence FITC-AHA-GRPRTSSFAEG-NH2), synthesized by Tufts Peptide Synthesis service. • 100 mM HEPES pH 7.5 (Calbiochem, 391338) • 0.015% Brij-35 (Sigma, B4184)
The reaction was incubated for 90 min at 25° C., and then stopped by the addition of 70 μl of Stop buffer (100 mM HEPES pH 7.5, 0.015% Brij-35, 10 mM EDTA (Sigma, E7889)).
The plate was read on a Caliper LC 3000 in an Off-Chip mobility shift assay format, using the following parameters for a 12-sipper chip: screening pressure −2.3 psi, upstream voltage −500, and downstream voltage −3000. These conditions caused unphosphorylated substrate and phosphorylated product peptide to resolve as separate peaks allowing direct measurement of percentage of conversion of substrate to product. The percent conversion was plotted against concentration of inhibitor to produce a sigmoidal dose response curve, from which an IC50 was calculated.

T1 sequence (P23443 whole entry T412E): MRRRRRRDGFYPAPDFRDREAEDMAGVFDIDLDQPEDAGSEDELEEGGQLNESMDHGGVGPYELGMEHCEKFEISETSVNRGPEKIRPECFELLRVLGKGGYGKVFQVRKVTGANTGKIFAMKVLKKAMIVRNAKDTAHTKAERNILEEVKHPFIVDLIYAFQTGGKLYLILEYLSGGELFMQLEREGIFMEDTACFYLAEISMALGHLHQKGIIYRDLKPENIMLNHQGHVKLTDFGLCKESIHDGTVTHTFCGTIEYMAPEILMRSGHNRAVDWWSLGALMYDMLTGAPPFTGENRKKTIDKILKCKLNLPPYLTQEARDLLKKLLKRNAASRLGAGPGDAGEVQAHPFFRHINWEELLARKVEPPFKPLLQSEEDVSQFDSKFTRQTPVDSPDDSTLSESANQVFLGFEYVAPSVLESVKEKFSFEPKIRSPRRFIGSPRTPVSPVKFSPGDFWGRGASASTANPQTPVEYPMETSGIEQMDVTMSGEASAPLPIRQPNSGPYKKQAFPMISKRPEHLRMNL
T2 sequence (P31749 whole entry): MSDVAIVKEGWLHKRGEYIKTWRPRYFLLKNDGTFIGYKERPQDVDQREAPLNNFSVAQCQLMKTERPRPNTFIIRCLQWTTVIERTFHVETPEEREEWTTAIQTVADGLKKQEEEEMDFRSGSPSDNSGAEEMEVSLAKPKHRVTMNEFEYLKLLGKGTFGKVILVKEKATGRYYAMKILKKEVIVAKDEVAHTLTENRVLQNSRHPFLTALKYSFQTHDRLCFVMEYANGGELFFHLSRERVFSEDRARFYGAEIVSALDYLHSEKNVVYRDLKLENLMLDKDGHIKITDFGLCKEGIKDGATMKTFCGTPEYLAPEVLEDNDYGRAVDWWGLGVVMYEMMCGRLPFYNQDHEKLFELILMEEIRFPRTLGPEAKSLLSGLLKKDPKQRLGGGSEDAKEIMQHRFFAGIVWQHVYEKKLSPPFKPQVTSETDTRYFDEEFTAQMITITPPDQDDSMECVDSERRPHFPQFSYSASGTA

For the compound `FC(F)(F)c1cc(-c2cn(CCN3CCC3)c(C3CCN(c4ncnc5c4CCC5)CC3)n2)ccn1` [Compound A23, 4-{4-[1-(2-Azetidin-1-yl-ethyl)-4-(2-trifluoromethyl-pyridin-4-yl)-1H-imidazol-2-yl]-piperidin-1-yl}-6,7-dihydro-5H-cyclopentapyrimidine], the negative logarithm of the IC50 (pIC50) (commonly −log10 of the IC50, conventionally taken in molar units) was above 7.60 in assay [1] and 7.00 to 7.59 at His-AKT (Full Length).
The corresponding values for `Fc1ccc(-c2cn(CCN3CCC3)c(C3CCN(c4ncnc5c4CCC5)CC3)n2)cc1Cl` [Compound A19, 4-{4-[1-(2-Azetidin-1-yl-ethyl)-4-(3-chloro-4-fluoro-phenyl)-1H-imidazol-2-yl]-piperidin-1-yl}-6,7-dihydro-5H-cyclopentapyrimidine] are above 7.60 and above 7.60.
The corresponding values for `CN(C)CCn1cc(-c2ccc(F)c(F)c2)nc1C1CCN(c2ncnc3c2NC(=O)CN3)CC1` [Compound A46, 4-{4-[4-(3,4-DifluoroPhenyl)-1-(2-dimethylamin-1-yl-ethyl)-1H-imidazol-2-yl]-piperidin-1-yl}-7,8-dihydro-5H-pteridin-6-one] are 7.00 to 7.59 and 6.30 to 7.00.
The corresponding values for `Fc1ccc(-c2cn(CCN3CCC3)c(C3CCN(c4ncnc5c4OCCN5)CC3)n2)cc1C(F)(F)F` [Compound A1, 4-(4-(1-(2-(azetidin-1-yl)ethyl)-4-(4-fluoro-3-(trifluoromethyl)phenyl)-1H-imidazol-2-yl)piperidin-1-yl)-7,8-dihydro-6H-pyrimido[5,4-b][1,4]oxazine] are above 7.60 and above 7.60.
Consider `O=C1CNc2ncnc(N3CCC(c4nc(-c5ccc(F)c(F)c5)cn4CCN4CCCC4)CC3)c2N1` [Compound A56, 4-{4-[4-(3,4-DifluoroPhenyl)-1-(2-pyrrolidin-1-yl-ethyl)-1H-imidazol-2-yl]-piperidin-1-yl}-7,8-dihydro-5H-pteridin-6-one], for which the pIC50 is 7.00 to 7.59 in assay [1] and above 7.60 on His-AKT (Full Length).
Take `COc1cc(-c2cn(CCN(C)C)c(C3CCN(c4ncnc5c4CCN5)CC3)n2)ccc1F` [Compound A25, {2-[2-[1-(6,7-Dihydro-5H-pyrrolo[2,3-d]pyrimidin-4-yl)-piperidin-4-yl]-4-(4-fluoro-3-methoxy-phenyl)-imidazol-1-yl]-ethyl}-dimethylamine]: the negative logarithm of the IC50 (pIC50) (in assay [1]; on His-AKT (Full Length)) was above 7.60 throughout.
With `O=C1CNc2ncnc(N3CCC(c4nc(-c5cccc(Cl)c5)cn4CCN4CCCC4)CC3)c2N1` [Compound A57, 4-{4-[4-(3-ChloroPhenyl)-1-(2-pyrrolidin-1-yl-ethyl)-1H-imidazol-2-yl]-piperidin-1-yl}-7,8-dihydro-5H-pteridin-6-one], the pIC50 (in assay [1]; at His-AKT (Full Length)) was 7.00 to 7.59 in each case.
On to `COc1cccc(-c2cn(CCN(C)C)c(C3CCN(c4ncnc5c4NC(=O)CN5)CC3)n2)c1` [Compound A51, 4-{4-[4-(3-Methoxy-phenyl)-1-(2-dimethylamin-1-yl-ethyl)-1H-imidazol-2-yl]-piperidin-1-yl}-7,8-dihydro-5H-pteridin-6-one], for which the negative-log IC50 (pIC50) in assay [1] is 6.30 to 7.00; at His-AKT (Full Length) it was 6.00 to 6.30.
The like results for `Fc1ccc(-c2cn(CCN3CCC3)c(C3CCN(c4ncnc5c4CCN5)CC3)n2)cc1C(F)(F)F` [Compound A28, 4-{4-[1-(2-Azetidin-1-yl-ethyl)-4-(4-fluoro-3-trifluoromethyl-phenyl)-1H-imidazol-2-yl]-piperidin-1-yl}-6,7-dihydro-5H-pyrrolo[2,3-d]pyrimidine] were, in that order, above 7.60 and above 7.60.
The like results for `CN(C)CCn1cc(-c2ccnc(C(F)(F)F)c2)nc1C1CCN(c2ncnc3c2CCCN3)CC1` [Compound A36, Dimethyl-{2-[2-[1-(5,6,7,8-tetrahydro-pyrido[2,3-d]pyrimidin-4-yl)-piperidin-4-yl]-4-(2-trifluoromethyl-pyridin-4-yl)-imidazol-1-yl]-ethyl}-amine] were, in that order, above 7.60 and above 7.60.
The like results for `COc1ccc(-c2cn(CCN(C)C)c(C3CCN(c4ncnc5c4NC(=O)CN5)CC3)n2)cc1` [Compound A52, 4-{4-[4-(4-Methoxyl-henyl)-1-(2-dimethylamin-1-yl-ethyl)-1H-imidazol-2-yl]-piperidin-1-yl}-7,8-dihydro-5H-pteridin-6-one] were, in that order, below 6.00 and below 6.00.
As to `FC(F)(F)c1cc(-c2cn(CCN3CCC3)c(C3CCN(c4ncnc5c4CCN5)CC3)n2)ccn1` [Compound A30, 4-{4-[1-(2-Azetidin-1-yl-ethyl)-4-(2-trifluoromethyl-pyridin-4-yl)-1H-imidazol-2-yl]-piperidin-1-yl}-6,7-dihydro-5H-pyrrolo[2,3-d]pyrimidine], the negative logarithm of the IC50 (pIC50) (in assay [1]; at His-AKT (Full Length)) was above 7.60 each time.
Turning to `CN(C)CCn1cc(-c2ccnc(C(F)(F)F)c2)nc1C1CCN(c2ncnc3c2CCN3)CC1` [Compound A27, {2-[2-[1-(6,7-Dihydro-5H-pyrrolo[2,3-d]pyrimidin-4-yl)-piperidin-4-yl]-4-(2-trifluoromethyl-pyridin-4-yl)-imidazol-1-yl]-ethyl}-dimethylamine], the pIC50 in assay [1] was above 7.60; at His-AKT (Full Length), 7.00 to 7.59.
`CN(C)CCn1cc(-c2ccc(F)c(Cl)c2)nc1C1CCN(c2ncnc3c2CCC3)CC1` [Compound A17, (2-{4-(3-Chloro-4-fluoro-phenyl)-2-[1-(6,7-dihydro-5H-cyclopentapyrimidin-4-yl)-piperidin-4-yl]-imidazol-1-yl}-ethyl)-dimethylamine]: the results for the negative logarithm of the IC50 (pIC50) (in assay [1]; on His-AKT (Full Length)) were above 7.60 and 7.00 to 7.59, respectively.
The corresponding values for `CN(C)CCn1cc(-c2ccnc(C(F)(F)F)c2)nc1C1CCN(c2ncnc3c2CCC3)CC1` [Compound A18, {2-[2-[1-(6,7-Dihydro-5H-cyclopentapyrimidin-4-yl)-piperidin-4-yl]-4-(2-trifluoromethyl-pyridin-4-yl)-imidazol-1-yl]-ethyl}-dimethylamine] are 7.00 to 7.59 and 6.30 to 7.00.
As to `Fc1ccc(-c2cn(CCN3CCC3)c(C3CCN(c4ncnc5c4CCCN5)CC3)n2)cc1C(F)(F)F` [Compound A37, 4-{4-[1-(2-Azetidin-1-yl-ethyl)-4-(4-fluoro-3-trifluoromethyl-phenyl)-1H-imidazol-2-yl]-piperidin-1-yl}-5,6,7,8-tetrahydro-pyrido[2,3-d]pyrimidine], the pIC50 (in assay [1]; at His-AKT (Full Length)) was above 7.60 each time.
Turning to `Cc1cc(-c2cn(CCN3CCC3)c(C3CCN(c4ncnc5c4CCC5)CC3)n2)ccc1F` [Compound A21, 4-{4-[1-(2-Azetidin-1-yl-ethyl)-4-(4-fluoro-3-methyl-phenyl)-1H-imidazol-2-yl]-piperidin-1-yl}-6,7-dihydro-5H-cyclopentapyrimidine], the negative-log IC50 (pIC50) (in assay [1]; at His-AKT (Full Length)) was above 7.60 each time.
With `CN(C)CCn1cc(-c2ccccc2)nc1C1CCN(c2ncnc3c2NC(=O)CN3)CC1` [Compound A53, 4-{4-[4-(Phenyl)-1-(2-dimethylamin-1-yl-ethyl)-1H-imidazol-2-yl]-piperidin-1-yl}-7,8-dihydro-5H-pteridin-6-one], the pIC50 (in assay [1]; on His-AKT (Full Length)) was below 6.00 throughout.
Take `O=C1CNc2ncnc(N3CCC(c4nc(-c5ccc(F)cc5)cn4CCN4CCCC4)CC3)c2N1` [Compound A59, 4-{4-[4-(4-FluoroPhenyl)-1-(2-pyrrolidin-1-yl-ethyl)-1H-imidazol-2-yl]-piperidin-1-yl}-7,8-dihydro-5H-pteridin-6-one]: the pIC50 in assay [1] is 7.00 to 7.59; on His-AKT (Full Length) it was 6.30 to 7.00.
The like results for `CN(C)CCn1cc(-c2ccc(F)c(C(F)(F)F)c2)nc1C1CCN(c2ccnc3c2CCCN3)CC1` [Compound A5, 2-(4-(4-fluoro-3-(trifluoromethyl)phenyl)-2-(1-(5,6,7,8-tetrahydro-1,8-naphthyridin-4-yl)piperidin-4-yl)-1H-imidazol-1-yl)-N,N-dimethylethanamine] were, in that order, above 7.60 and 7.00 to 7.59.
In the case of `Fc1ccc(-c2cn(CCN3CCC3)c(C3CCN(c4ncnc5c4CCN5)CC3)n2)cc1Cl` [Compound A31, 4-{4-[1-(2-Azetidin-1-yl-ethyl)-4-(3-chloro-4-fluoro-phenyl)-1H-imidazol-2-yl]-piperidin-1-yl}-6,7-dihydro-5H-pyrrolo[2,3-d]pyrimidine], the pIC50 (in assay [1]; at His-AKT (Full Length)) was above 7.60 throughout.
